In data set [1] the target is MMP13 (Homo sapiens, UniProt P45452). Description: off-target proteinase inhibition MMP13. The class given is biochemical. The note with it: read-out: Relative enzyme activity MMP13.
The target in data set [2] is T1, recombinant human meprin α (Homo sapiens, UniProt Q16819).
T1 sequence (Q16819 66-746): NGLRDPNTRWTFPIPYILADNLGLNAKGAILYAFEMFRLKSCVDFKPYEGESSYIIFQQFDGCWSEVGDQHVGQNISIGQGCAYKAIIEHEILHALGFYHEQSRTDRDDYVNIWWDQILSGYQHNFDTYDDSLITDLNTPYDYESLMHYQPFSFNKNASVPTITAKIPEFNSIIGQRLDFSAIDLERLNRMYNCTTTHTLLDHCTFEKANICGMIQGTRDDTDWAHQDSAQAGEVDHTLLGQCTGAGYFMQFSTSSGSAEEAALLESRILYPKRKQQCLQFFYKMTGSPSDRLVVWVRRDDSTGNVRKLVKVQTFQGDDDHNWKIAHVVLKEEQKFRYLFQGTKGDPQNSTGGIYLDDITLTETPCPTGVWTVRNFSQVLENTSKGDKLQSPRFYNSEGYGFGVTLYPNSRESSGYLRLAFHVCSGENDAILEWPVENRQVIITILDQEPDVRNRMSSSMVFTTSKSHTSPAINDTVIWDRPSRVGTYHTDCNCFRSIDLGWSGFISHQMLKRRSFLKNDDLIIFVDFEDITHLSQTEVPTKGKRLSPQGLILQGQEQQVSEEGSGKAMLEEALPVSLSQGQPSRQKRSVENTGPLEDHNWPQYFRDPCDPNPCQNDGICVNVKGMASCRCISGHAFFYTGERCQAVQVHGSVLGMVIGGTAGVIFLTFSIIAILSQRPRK
Description: meprin α inhibition, quenched fluorogenic peptide substrate assay. The class given is biochemical. The note with it: for SF: selectivity factor (K i app meprin β/K i app meprin α): meprin α over meprin β.

In data set [3] the target is T2, mouse ovastacin (Mus musculus, UniProt Q6HA09).
T2 sequence (Q6HA09 86-435 limits assumed): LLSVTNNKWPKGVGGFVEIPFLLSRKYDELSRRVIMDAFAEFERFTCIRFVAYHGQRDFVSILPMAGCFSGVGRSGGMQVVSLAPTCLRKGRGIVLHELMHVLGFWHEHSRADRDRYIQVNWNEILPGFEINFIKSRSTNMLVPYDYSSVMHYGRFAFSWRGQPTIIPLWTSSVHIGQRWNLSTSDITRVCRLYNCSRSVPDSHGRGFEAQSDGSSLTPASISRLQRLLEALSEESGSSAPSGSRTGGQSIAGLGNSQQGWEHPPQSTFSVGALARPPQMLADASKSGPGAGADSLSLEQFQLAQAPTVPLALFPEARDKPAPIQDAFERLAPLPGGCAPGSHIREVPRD
Description: ovastacin inhibition, fluorogenic enzyme activity assay.

Data set [4] has as its target T3, ADAM10 (Homo sapiens, UniProt O14672).
T3 sequence (O14672 214-748): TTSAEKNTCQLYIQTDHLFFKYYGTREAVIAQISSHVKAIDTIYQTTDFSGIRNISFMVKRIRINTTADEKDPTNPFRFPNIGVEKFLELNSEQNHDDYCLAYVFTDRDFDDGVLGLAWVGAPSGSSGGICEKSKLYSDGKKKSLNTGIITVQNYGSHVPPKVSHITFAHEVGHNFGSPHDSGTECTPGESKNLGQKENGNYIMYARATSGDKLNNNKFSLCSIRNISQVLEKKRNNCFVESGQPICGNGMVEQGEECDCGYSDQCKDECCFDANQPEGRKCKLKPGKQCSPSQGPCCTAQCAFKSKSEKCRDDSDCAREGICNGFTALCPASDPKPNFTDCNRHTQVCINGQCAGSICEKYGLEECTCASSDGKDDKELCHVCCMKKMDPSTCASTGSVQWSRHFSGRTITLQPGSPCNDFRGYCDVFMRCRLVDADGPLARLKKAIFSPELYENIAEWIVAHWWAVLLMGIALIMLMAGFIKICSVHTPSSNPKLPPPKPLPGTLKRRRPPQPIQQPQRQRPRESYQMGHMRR
Description: off-target proteinase inhibition ADAM10. The class given is biochemical. The note with it: read-out: Relative enzyme activity ADAM10.

Data set [5] has as its target ADAM17 (Homo sapiens, UniProt P78536). Description: off-target proteinase inhibition ADAM17. The note with it: read-out: Relative enzyme activity ADAM17. The class given is biochemical.
The target in data set [6] is T4, MMP2 (Homo sapiens, UniProt P08253).
T4 sequence (P08253 110-660): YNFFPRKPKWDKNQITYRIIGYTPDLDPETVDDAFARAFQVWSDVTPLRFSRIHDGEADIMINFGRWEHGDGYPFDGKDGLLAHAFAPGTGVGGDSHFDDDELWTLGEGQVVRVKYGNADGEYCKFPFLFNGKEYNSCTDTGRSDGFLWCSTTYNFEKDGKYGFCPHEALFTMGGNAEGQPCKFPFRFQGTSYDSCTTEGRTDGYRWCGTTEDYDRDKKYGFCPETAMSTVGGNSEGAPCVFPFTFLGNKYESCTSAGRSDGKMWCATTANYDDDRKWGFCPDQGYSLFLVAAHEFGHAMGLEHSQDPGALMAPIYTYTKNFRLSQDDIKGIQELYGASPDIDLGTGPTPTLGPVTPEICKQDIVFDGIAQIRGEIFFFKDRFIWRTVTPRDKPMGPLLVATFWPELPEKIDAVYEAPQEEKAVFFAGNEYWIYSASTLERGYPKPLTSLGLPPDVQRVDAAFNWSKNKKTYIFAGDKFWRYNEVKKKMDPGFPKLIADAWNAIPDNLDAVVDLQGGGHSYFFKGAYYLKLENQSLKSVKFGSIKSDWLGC
Description: off-target proteinase inhibition MMP2. The class given is biochemical. The settings on record: read-out: Relative enzyme activity MMP2.

The nature of data set [7]: cell-viability assay. It counts as cell-based. The note with it: human, Hep-G2 cells.
The nature of data set [8]: cell-viability assay. The settings on record: human, SH-SY5Y cells. The class given is cell-based.
Data set [9] addresses MMP9 (Homo sapiens, UniProt P14780). Description: off-target proteinase inhibition MMP9. It counts as biochemical. The settings on record: read-out: Relative enzyme activity MMP9.
Data set [10] addresses T5, recombinant human meprin β (Homo sapiens, UniProt Q16820).
T5 sequence (Q16820 62-701): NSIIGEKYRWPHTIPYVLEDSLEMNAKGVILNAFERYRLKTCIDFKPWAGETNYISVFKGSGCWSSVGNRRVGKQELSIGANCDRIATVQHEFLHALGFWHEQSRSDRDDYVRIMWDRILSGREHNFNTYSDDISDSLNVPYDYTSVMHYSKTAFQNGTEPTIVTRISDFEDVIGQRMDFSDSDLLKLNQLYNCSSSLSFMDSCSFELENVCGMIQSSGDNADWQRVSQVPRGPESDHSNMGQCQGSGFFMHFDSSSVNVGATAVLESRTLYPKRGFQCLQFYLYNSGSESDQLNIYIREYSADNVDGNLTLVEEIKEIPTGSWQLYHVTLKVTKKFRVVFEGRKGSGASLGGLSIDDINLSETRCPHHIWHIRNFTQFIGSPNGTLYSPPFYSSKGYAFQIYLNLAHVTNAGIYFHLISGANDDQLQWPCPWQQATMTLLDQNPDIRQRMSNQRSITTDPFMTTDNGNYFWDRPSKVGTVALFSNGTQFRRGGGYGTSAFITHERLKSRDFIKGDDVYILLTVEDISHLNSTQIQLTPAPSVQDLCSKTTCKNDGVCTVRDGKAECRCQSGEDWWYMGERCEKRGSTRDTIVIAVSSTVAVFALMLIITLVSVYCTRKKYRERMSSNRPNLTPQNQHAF
Description: meprin β inhibition, quenched fluorogenic peptide substrate assay. The class given is biochemical.

Here are results for two compounds from publication PMC8048867 (Chemmedchem, 2020).

The Ki is the equilibrium dissociation constant of an inhibitor or competing ligand from its target. By viability is commonly meant the share of living cells, or the viability signal relative to a control. A high value points to better survival.

Sequence of ADAM17 (P78536 215-824): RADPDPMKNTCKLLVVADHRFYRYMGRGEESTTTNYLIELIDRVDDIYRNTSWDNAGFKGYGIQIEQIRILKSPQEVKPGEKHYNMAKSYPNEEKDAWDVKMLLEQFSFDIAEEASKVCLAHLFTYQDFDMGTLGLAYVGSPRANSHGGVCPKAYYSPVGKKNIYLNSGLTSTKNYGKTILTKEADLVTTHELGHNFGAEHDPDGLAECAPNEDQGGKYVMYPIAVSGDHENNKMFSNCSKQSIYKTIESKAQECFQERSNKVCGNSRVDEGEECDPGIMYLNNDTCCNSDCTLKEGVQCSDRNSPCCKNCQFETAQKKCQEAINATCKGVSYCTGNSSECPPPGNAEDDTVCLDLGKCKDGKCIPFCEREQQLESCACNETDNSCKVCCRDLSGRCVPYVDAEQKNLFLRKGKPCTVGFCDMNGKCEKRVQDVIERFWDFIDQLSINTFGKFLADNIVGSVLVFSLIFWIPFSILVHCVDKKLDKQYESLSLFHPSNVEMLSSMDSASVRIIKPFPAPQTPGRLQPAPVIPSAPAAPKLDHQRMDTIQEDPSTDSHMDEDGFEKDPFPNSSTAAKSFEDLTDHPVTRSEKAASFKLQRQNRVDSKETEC
Sequence of MMP9 (P14780 107-707 limits assumed): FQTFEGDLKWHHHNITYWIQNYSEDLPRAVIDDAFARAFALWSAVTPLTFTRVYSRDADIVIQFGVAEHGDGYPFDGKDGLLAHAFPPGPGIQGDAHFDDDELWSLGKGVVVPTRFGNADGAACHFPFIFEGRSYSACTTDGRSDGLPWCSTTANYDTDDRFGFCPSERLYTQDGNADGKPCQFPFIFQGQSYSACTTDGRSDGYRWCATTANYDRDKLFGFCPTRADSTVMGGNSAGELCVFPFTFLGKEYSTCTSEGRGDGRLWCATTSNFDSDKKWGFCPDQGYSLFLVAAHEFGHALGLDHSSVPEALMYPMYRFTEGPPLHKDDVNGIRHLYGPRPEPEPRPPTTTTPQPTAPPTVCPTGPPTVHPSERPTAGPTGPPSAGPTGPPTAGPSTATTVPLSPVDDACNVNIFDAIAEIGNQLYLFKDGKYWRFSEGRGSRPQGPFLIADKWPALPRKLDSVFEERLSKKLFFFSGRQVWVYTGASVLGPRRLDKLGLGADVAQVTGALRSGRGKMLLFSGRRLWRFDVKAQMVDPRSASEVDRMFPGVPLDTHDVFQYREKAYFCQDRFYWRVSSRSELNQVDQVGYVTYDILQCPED

With `O=C(Cn1c(-c2ccccc2)nnc1-c1ccccc1)NO` [2 g, 2‐(3,5‐Diphenyl‐1,2,4‐triazol‐4‐yl)ethanehydroxamic acid], the remaining activity at 10 µM in data set [1] was 93%; in data set [4] it was 89%; in data set [5] it was 90%; in [6] it was 95%; in data set [9] it was 99%. The remaining activity at 200 µM in data set [1] came out at 76%; in data set [4] it was 83%; in data set [5] it was 56%; in data set [6], 70%; in data set [9], 54%. Further, the Ki in data set [2] came to 66 nM; in [3] it was 4880 nM; in data set [10], 8680 nM. Moreover, the “SF: selectivity factor (K i app meprin β/K i app meprin α)” value in data set [2] is 132. The “SF Meprin α: selectivity factor (K i app ovastacin/K i app meprin α)” value in data set [3] turned out to be 74. In addition, in data set [3], the “SF Meprin β: selectivity factor (K i app ovastacin/K i app meprin β)” value amounted to 0.6. Besides, the values for the viability at 24 h, 30 µM in data set [7] and in data set [8] were 94% and 99%, respectively.
For `O=C(Cn1c(-c2ccccc2)nc2ccccc21)NO` [4 c, 2‐(2‐Phenylbenzimidazol‐1‐yl)ethanehydroxamic acid], the remaining activity at 10 µM in data set [1] is 102%; in data set [4], 87%; in data set [5], 92%; in [6], 89%; in data set [9] it was 96%. In addition, the remaining activity at 200 µM in data set [1] is 72%; in data set [4], 76%; in data set [5], 56%; in [6] it was 46%; in [9] it was 68%. The figures for the inhibitory constant (Ki) in data set [2], in data set [3] and in [10] were 163 nM, 2090 nM and 1620 nM, respectively. For the same compound, the “SF: selectivity factor (K i app meprin β/K i app meprin α)” value in data set [2] was found to be 10. Moreover, the “SF Meprin α: selectivity factor (K i app ovastacin/K i app meprin α)” value in [3] was 13. In data set [3], the “SF Meprin β: selectivity factor (K i app ovastacin/K i app meprin β)” value was 1.3. The viability at 24 h, 30 µM was 85% in [7] and 94% in data set [8].
